These results are taken from ChEMBL document CHEMBL5653631, “A Potent and Selective ULK1 Inhibitor Suppresses Autophagy and Sensitizes Cancer Cells to Nutrient Stress” (iScience, 2018).

Experiment [1] addresses Cyclin-dependent kinase 9 (Homo sapiens) (UniProt P50750). The experiment can be described thus: Inhibition of human recombinant CDK9 at 40 nM related to control ULK1.
For experiment [2], the target named is T1, Testis-specific serine/threonine-protein kinase 4 (Homo sapiens) (UniProt Q6SA08).
T1 sequence (whole entry): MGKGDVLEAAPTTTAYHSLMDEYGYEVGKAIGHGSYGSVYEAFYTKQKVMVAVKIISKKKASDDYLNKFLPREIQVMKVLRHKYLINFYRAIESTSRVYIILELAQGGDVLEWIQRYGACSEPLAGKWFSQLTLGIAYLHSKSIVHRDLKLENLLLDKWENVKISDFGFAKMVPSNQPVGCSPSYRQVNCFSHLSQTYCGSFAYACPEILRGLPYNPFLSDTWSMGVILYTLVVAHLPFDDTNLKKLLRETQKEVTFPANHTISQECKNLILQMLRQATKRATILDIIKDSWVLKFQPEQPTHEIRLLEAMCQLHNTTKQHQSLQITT
The experiment can be described thus: Inhibition of human recombinant TSSK4 at 40 nM related to control ULK1.

The target in experiment [3] is Dual specificity mitogen-activated protein kinase kinase 1 (Homo sapiens) (UniProt Q02750). The experiment can be described thus: Inhibition of human recombinant MAP2K1 at 40 nM in presence of ATP by radiometric assay relative to control.
For experiment [4], the target named is T2, Dual specificity tyrosine-phosphorylation-regulated kinase 3 (Homo sapiens) (UniProt O43781).
T2 sequence (whole entry): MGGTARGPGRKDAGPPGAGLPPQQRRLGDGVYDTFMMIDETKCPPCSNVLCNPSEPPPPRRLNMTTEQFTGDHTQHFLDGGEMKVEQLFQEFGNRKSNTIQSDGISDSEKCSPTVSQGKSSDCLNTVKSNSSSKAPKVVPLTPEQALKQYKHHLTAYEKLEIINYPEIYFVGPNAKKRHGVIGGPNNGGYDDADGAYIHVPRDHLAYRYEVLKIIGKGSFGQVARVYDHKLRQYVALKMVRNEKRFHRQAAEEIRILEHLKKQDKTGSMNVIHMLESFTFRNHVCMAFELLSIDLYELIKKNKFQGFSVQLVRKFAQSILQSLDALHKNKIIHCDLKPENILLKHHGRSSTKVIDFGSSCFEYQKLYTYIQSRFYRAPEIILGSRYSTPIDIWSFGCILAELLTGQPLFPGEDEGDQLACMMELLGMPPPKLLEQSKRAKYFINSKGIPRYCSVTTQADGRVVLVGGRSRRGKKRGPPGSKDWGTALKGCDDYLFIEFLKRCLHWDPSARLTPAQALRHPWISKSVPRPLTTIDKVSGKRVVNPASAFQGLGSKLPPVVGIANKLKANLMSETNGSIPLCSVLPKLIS
The experiment can be described thus: Inhibition of human recombinant DYRK3 at 40 nM in presence of ATP by radiometric assay relative to control.

In experiment [5] the target is T3, Dual specificity protein kinase TTK (Homo sapiens) (UniProt P33981).
T3 sequence (whole entry): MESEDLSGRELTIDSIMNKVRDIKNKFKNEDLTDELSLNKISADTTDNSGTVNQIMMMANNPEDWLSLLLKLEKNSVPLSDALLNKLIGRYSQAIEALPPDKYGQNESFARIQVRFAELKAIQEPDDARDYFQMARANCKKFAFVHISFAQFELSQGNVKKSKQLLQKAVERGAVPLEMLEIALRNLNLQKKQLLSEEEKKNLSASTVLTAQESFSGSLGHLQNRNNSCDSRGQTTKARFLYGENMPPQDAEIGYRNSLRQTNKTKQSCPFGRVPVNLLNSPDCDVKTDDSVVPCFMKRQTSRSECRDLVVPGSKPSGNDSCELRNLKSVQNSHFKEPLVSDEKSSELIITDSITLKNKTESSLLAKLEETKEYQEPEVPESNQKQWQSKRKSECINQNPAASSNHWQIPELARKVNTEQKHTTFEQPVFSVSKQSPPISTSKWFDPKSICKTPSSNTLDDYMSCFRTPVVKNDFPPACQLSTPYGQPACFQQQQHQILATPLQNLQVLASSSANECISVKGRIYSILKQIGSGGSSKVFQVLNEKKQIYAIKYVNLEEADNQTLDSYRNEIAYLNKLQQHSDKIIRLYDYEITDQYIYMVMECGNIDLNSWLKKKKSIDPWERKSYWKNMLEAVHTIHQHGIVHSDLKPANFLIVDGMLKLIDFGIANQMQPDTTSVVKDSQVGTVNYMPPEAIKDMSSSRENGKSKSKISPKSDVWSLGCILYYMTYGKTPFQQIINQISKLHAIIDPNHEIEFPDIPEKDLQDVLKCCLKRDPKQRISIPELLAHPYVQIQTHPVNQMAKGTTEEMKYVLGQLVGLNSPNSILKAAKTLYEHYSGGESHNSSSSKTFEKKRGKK
The experiment can be described thus: Inhibition of human recombinant TTK at 500 nM in presence of ATP by radiometric assay relative to control.

In experiment [6] the target is Calcium/calmodulin-dependent protein kinase type II subunit beta (Homo sapiens) (UniProt Q13554). The experiment can be described thus: Inhibition of human recombinant CaMK2b at 500 nM related to control ULK1.
Experiment [7] deals with T4, MAPK/MAK/MRK overlapping kinase (Homo sapiens) (UniProt Q9UQ07).
T4 sequence (whole entry): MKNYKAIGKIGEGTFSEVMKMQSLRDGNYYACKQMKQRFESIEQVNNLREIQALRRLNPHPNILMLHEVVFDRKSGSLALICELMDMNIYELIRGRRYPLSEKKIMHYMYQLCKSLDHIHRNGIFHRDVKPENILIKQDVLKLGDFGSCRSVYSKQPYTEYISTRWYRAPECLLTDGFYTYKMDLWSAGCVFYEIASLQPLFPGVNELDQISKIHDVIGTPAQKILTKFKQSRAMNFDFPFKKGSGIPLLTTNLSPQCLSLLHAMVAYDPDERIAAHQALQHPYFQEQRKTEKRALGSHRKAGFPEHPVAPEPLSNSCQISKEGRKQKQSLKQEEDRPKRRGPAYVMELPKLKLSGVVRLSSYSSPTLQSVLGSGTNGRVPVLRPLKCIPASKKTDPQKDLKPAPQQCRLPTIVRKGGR
The experiment can be described thus: Inhibition of human recombinant MOK at 15 nM in presence of ATP by radiometric assay relative to control.

Experiment [8] addresses T5, Serine/threonine-protein kinase Sgk2 (Homo sapiens) (UniProt Q9HBY8).
T5 sequence (whole entry): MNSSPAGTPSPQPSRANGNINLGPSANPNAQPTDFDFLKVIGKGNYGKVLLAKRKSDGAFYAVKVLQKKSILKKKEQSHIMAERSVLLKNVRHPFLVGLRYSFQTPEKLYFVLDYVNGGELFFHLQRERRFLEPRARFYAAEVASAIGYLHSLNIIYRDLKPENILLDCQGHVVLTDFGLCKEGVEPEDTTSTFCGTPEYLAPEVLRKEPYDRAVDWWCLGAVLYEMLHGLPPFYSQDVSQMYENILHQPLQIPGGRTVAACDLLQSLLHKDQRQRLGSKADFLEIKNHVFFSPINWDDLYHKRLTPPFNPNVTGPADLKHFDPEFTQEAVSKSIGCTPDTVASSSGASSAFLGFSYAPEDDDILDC
The experiment can be described thus: Inhibition of human recombinant SGK2 at 15 nM related to control ULK1.

Broadly, the inhibition is the share of the control response that was lost under treatment.

Sequence of Calcium/calmodulin-dependent protein kinase type II subunit beta (Homo sapiens) (Q13554 whole entry): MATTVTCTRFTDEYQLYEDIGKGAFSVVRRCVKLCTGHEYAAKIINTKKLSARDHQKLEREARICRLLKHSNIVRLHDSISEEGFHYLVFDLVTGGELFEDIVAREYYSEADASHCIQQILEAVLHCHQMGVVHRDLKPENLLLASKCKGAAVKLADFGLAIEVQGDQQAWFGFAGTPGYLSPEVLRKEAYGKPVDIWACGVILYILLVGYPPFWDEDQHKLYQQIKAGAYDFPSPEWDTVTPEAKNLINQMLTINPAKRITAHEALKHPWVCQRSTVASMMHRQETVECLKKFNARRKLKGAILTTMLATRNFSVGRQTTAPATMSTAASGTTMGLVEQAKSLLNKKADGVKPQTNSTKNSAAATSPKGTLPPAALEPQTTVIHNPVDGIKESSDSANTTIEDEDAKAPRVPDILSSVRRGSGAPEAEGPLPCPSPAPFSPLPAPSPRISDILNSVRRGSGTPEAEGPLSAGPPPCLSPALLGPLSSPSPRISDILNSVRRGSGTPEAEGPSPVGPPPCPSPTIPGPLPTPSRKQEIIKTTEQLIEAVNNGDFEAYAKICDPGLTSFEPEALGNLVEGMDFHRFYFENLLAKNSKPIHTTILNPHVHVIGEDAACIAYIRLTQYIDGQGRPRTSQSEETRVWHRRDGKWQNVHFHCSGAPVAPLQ
Sequence of Cyclin-dependent kinase 9 (Homo sapiens) (P50750 whole entry): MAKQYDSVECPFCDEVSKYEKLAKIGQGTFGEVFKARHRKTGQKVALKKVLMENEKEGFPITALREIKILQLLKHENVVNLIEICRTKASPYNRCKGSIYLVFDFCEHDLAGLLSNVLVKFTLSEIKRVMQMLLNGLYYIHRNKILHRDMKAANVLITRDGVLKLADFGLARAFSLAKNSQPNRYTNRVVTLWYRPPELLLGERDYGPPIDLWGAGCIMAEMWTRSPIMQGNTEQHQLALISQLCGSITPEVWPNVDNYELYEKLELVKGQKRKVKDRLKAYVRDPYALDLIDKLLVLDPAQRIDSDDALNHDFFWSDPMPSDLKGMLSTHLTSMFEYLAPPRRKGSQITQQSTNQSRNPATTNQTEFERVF
Sequence of Dual specificity mitogen-activated protein kinase kinase 1 (Homo sapiens) (Q02750 whole entry): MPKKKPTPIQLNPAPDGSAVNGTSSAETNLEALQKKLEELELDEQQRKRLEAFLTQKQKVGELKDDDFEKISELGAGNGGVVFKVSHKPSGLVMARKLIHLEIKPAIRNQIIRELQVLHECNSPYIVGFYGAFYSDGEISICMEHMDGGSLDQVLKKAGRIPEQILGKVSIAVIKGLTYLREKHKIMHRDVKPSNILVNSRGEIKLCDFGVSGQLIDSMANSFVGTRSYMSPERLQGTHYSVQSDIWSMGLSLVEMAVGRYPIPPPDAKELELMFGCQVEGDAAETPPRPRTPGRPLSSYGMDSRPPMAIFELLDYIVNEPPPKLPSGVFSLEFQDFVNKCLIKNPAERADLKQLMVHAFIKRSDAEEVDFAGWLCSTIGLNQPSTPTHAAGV

`O=C(N[C@@H](C1CC1)C(F)(F)F)c1cc(-c2cnn3cc(-c4ccc(F)cc4)cnc23)cs1`: the fold change (FC) in experiment [1] and in experiment [2] was 0 throughout. In addition, the figures for the inhibition in experiment [3] and in experiment [4] were 0% and 30%, respectively.

Regarding `CNC(=O)c1ccccc1Oc1nc(Nc2cc(OC)c(OC)c(OC)c2)ncc1Br`, in experiment [5], the inhibition was determined as 11%. For the same molecule, the fold change (FC) in experiment [6] was 0.

As to `CC(C)[C@H](NC(=O)c1cc(-c2cnn3cc(-c4ccc(OCCN5CCCCC5)cc4)cnc23)cs1)C(F)(F)F`, the inhibition in experiment [7] amounted to 5%. Further, the fold change (FC) in experiment [8] was determined as 0.
